Data as given in ChEMBL document CHEMBL1124638, “2,4-Diamino-5-benzylpyrimidines and analogues as antibacterial agents. 10. 2,4-Diamino-5-(6-quinolylmethyl)- and -[(tetrahydro-6-quinolyl)methyl]pyrimidine derivatives. Further specificity studies” (J Med Chem, 1989).
Values after ≈ are worked out from the molar mass of the structure shown.

What was measured:
[1] = biological target: Dihydrofolate reductase (Neisseria gonorrhoeae, UniProt P04174); assay: Inhibitory activity against Dihydrofolate reductase in Neisseria gonorrhoeae; settings: read-out: I50
Sequence of Dihydrofolate reductase (Neisseria gonorrhoeae, UniProt P04174) (P04174 whole entry): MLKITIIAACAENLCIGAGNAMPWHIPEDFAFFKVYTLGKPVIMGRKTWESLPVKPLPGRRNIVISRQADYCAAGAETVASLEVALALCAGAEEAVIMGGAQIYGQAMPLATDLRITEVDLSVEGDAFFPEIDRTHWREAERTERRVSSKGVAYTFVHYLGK

[2] = biological target: T1, Dihydrofolate reductase (Rattus norvegicus, UniProt Q920D2); assay: Inhibitory activity against dihydrofolate reductase in rat liver; settings: read-out: I50
T1 sequence (Q920D2 whole entry): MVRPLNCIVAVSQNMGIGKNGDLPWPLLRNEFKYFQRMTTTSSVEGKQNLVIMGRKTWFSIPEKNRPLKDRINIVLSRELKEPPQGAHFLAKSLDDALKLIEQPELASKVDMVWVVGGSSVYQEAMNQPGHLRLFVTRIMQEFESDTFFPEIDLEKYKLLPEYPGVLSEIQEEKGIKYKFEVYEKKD

[3] = system: Klebsiella pneumoniae; assay: Comparative in vitro antibacterial activity with trimethoprim against Klebsiella pneumoniae CN3632; assay type: functional
[4] = system: Proteus mirabilis; assay: Comparative in vitro antibacterial activity with trimethoprim against Proteus mirabilis S2409; assay type: functional
[5] = system: Bordetella bronchiseptica; assay: Comparative in vitro antibacterial activity with trimethoprim against Bordetella bronchiseptica CN385; assay type: functional
[6] = system: Enterococcus faecalis; assay: Comparative in vitro antibacterial activity with trimethoprim against Streptococcus faecalis CN478; assay type: functional
[7] = system: Streptococcus agalactiae; assay: Comparative in vitro antibacterial activity with trimethoprim against Streptococcus agalactiae CN1143; assay type: functional
[8] = system: Proteus vulgaris; assay: Comparative in vitro antibacterial activity with trimethoprim against Proteus vulgaris CN329; assay type: functional
[9] = system: Mycolicibacterium smegmatis; assay: Comparative in vitro antibacterial activity with trimethoprim against Mycobacterium smegmatis S 3254; assay type: functional
[10] = system: Streptococcus pyogenes; assay: Comparative in vitro antibacterial activity of compound with trimethoprim against Streptococcus pyogenes CN10; assay type: functional
[11] = system: Salmonella typhimurium; assay: Comparative in vitro antibacterial activity with trimethoprim against Salmonella Typhimurium S 8587; assay type: functional, Salmonella enterica subsp. enterica serovar Typhimurium; settings: Salmonella enterica
[12] = Comparative in vitro antibacterial activity with trimethoprim against Salmonella typhi CN512; assay type: functional, salmonella typhosa
[13] = system: Pasteurella multocida; assay: Comparative in vitro antibacterial activity with trimethoprim against Pasteurella multocida ATCC 6587; assay type: functional
[14] = system: Vibrio cholerae; assay: Comparative in vitro antibacterial activity with trimethoprim against Vibrio cholerae ATCC 14035; assay type: functional
[15] = system: Klebsiella aerogenes; assay: Comparative in vitro antibacterial activity with trimethoprim against Enterobacter aerogenes 2200/86; assay type: functional
[16] = system: Citrobacter freundii; assay: Comparative in vitro antibacterial activity with trimethoprim against Citrobacter freundii 2200/77; assay type: functional
[17] = system: Staphylococcus aureus; assay: Comparative in vitro antibacterial activity with trimethoprim against Staphylococcus aureus CN491; assay type: functional
[18] = system: Escherichia coli; assay: Comparative in vitro antibacterial activity with trimethoprim against Escherichia coli CN314; assay type: functional
[19] = system: Serratia marcescens; assay: Comparative in vitro antibacterial activity with trimethoprim against Serratia marcescens CN2398; assay type: functional
[20] = system: Shigella flexneri; assay: Comparative in vitro antibacterial activity with trimethoprim against Shigella flexneri CN6007; assay type: functional

Molecule `CCOC(=O)C1CNc2c(OC)cc(Cc3cnc(N)nc3N)c(OC)c2C1` (stereo not given) has an IC50 [1] of 1.9 µM and an IC50 [2] of 142 µM.

`COc1cc(Cc2cnc(N)nc2N)cc2c1N(CCOC(C)=O)CCC2C` (stereo not given) gave an MIC [3] of 10 µg/mL (≈ 25.9 µM), an MIC [4] of 30 µg/mL (≈ 77.8 µM) and an MIC [5] of 3 µg/mL (≈ 7.78 µM). It also gave an MIC [6] of 1 µg/mL (≈ 2.59 µM), an MIC [7] of 1 µg/mL (≈ 2.59 µM) and an MIC [8] of 10 µg/mL (≈ 25.9 µM). The MIC [9] was 3 µg/mL (≈ 7.78 µM), the MIC [10] was 10 µg/mL (≈ 25.9 µM) and the MIC [11] was 30 µg/mL (≈ 77.8 µM). It also gave an IC50 [1] of 0.63 µM, an MIC [12] of 30 µg/mL (≈ 77.8 µM) and an MIC [13] of 10 µg/mL (≈ 25.9 µM). The MIC [14] was 10 µg/mL (≈ 25.9 µM), the MIC [15] was 30 µg/mL (≈ 77.8 µM) and the IC50 [2] was 190 µM. The MIC [16] was 10 µg/mL (≈ 25.9 µM), the MIC [17] was 3 µg/mL (≈ 7.78 µM) and the MIC [18] was 30 µg/mL (≈ 77.8 µM). For the same molecule, the MIC [19] was over 10 µg/mL and the MIC [20] was 30 µg/mL (≈ 77.8 µM).

Molecule `COc1cc(Cc2cnc(N)nc2N)cc2c1NCC(CO)C2` (stereo not given) has an MIC [3] of 10 µg/mL (≈ 31.7 µM), an MIC [4] of over 30 µg/mL and an MIC [5] of 30 µg/mL (≈ 95.1 µM). For the same molecule, the MIC [6] was 3 µg/mL (≈ 9.51 µM), the MIC [7] was 10 µg/mL (≈ 31.7 µM) and the MIC [8] was 100 µg/mL (≈ 317 µM). It also gave an MIC [9] of 10 µg/mL (≈ 31.7 µM), an MIC [10] of 10 µg/mL (≈ 31.7 µM) and an MIC [11] of 10 µg/mL (≈ 31.7 µM). For the same molecule, the IC50 [1] was 0.41 µM, the MIC [12] was 10 µg/mL (≈ 31.7 µM) and the MIC [13] was 30 µg/mL (≈ 95.1 µM). It also gave an MIC [14] of 3 µg/mL (≈ 9.51 µM), an MIC [15] of 30 µg/mL (≈ 95.1 µM) and an IC50 [2] of 64 µM. The MIC [16] was 30 µg/mL (≈ 95.1 µM), the MIC [17] was 3 µg/mL (≈ 9.51 µM) and the MIC [18] was 10 µg/mL (≈ 31.7 µM). The MIC [19] was over 10 µg/mL and the MIC [20] was 30 µg/mL (≈ 95.1 µM).

`CCN1CCC(C)c2cc(Cc3cnc(N)nc3N)ccc21` (stereo not given) showed an MIC [3] of 100 µg/mL (≈ 336 µM), an MIC [4] of 30 µg/mL (≈ 101 µM) and an MIC [5] of 100 µg/mL (≈ 336 µM). It also gave an MIC [6] of 3 µg/mL (≈ 10.1 µM), an MIC [7] of 3 µg/mL (≈ 10.1 µM) and an MIC [8] of 100 µg/mL (≈ 336 µM). The MIC [9] was 10 µg/mL (≈ 33.6 µM), the MIC [11] was 100 µg/mL (≈ 336 µM) and the IC50 [1] was 0.69 µM. The MIC [12] was 100 µg/mL (≈ 336 µM), the MIC [13] was 30 µg/mL (≈ 101 µM) and the MIC [14] was 10 µg/mL (≈ 33.6 µM). The MIC [15] was 100 µg/mL (≈ 336 µM), the IC50 [2] was 38 µM and the MIC [16] was 100 µg/mL (≈ 336 µM). The MIC [17] was 3 µg/mL (≈ 10.1 µM), the MIC [18] was 100 µg/mL (≈ 336 µM) and the MIC [19] was over 30 µg/mL. It also gave an MIC [20] of 100 µg/mL (≈ 336 µM).

Work on `COc1cc(Cc2cnc(N)nc2N)cc2c(C)cc(C)nc12` yielded an MIC [3] of 1 µg/mL (≈ 3.23 µM), an MIC [4] of 0.3 µg/mL (≈ 0.97 µM) and an MIC [5] of 3 µg/mL (≈ 9.7 µM). It also gave an MIC [6] of 1 µg/mL (≈ 3.23 µM), an MIC [7] of 1 µg/mL (≈ 3.23 µM) and an MIC [8] of 3 µg/mL (≈ 9.7 µM). It also gave an MIC [9] of 1 µg/mL (≈ 3.23 µM), an MIC [10] of 0.1 µg/mL (≈ 0.323 µM) and an MIC [11] of 3 µg/mL (≈ 9.7 µM). The MIC [12] was 1 µg/mL (≈ 3.23 µM), the MIC [13] was 1 µg/mL (≈ 3.23 µM) and the MIC [14] was 0.3 µg/mL (≈ 0.97 µM). The MIC [15] was 3 µg/mL (≈ 9.7 µM), the IC50 [2] was 43 µM and the MIC [16] was 3 µg/mL (≈ 9.7 µM). It also gave an MIC [17] of 0.3 µg/mL (≈ 0.97 µM), an MIC [18] of 3 µg/mL (≈ 9.7 µM) and an MIC [19] of 1 µg/mL (≈ 3.23 µM). The MIC [20] was 3 µg/mL (≈ 9.7 µM).

In the case of `CCc1cc(Cc2cnc(N)nc2N)cc2c1N(C)CCC2C` (stereo not given), the MIC [3] is reported as 3 µg/mL (≈ 9.63 µM), the MIC [4] is reported as 3 µg/mL (≈ 9.63 µM) and the MIC [5] is reported as 1 µg/mL (≈ 3.21 µM). For the same molecule, the MIC [6] was 0.03 µg/mL (≈ 0.0963 µM), the MIC [7] was 1 µg/mL (≈ 3.21 µM) and the MIC [8] was 10 µg/mL (≈ 32.1 µM). It also gave an MIC [9] of 3 µg/mL (≈ 9.63 µM), an MIC [10] of 1 µg/mL (≈ 3.21 µM) and an MIC [11] of 1 µg/mL (≈ 3.21 µM). It also gave an IC50 [1] of 0.3 µM, an MIC [12] of 10 µg/mL (≈ 32.1 µM) and an MIC [13] of 3 µg/mL (≈ 9.63 µM). It also gave an MIC [14] of 3 µg/mL (≈ 9.63 µM), an MIC [15] of 1 µg/mL (≈ 3.21 µM) and an IC50 [2] of 44 µM. For the same molecule, the MIC [16] was 3 µg/mL (≈ 9.63 µM), the MIC [17] was 0.03 µg/mL (≈ 0.0963 µM) and the MIC [18] was 3 µg/mL (≈ 9.63 µM). It also gave an MIC [19] of 3 µg/mL (≈ 9.63 µM) and an MIC [20] of 10 µg/mL (≈ 32.1 µM).

`COc1cc(Cc2cnc(N)nc2N)cc2c1NCC(COC(C)=O)C2` (stereo not given) gave an MIC [3] of 100 µg/mL (≈ 280 µM), an MIC [4] of 30 µg/mL (≈ 83.9 µM) and an MIC [5] of 10 µg/mL (≈ 28 µM). For the same molecule, the MIC [6] was 3 µg/mL (≈ 8.39 µM), the MIC [7] was 10 µg/mL (≈ 28 µM) and the MIC [8] was 30 µg/mL (≈ 83.9 µM). It also gave an MIC [9] of 30 µg/mL (≈ 83.9 µM), an MIC [10] of 3 µg/mL (≈ 8.39 µM) and an MIC [11] of 30 µg/mL (≈ 83.9 µM). The IC50 [1] was 0.16 µM, the MIC [12] was 30 µg/mL (≈ 83.9 µM) and the MIC [13] was 30 µg/mL (≈ 83.9 µM). For the same molecule, the MIC [14] was 10 µg/mL (≈ 28 µM), the MIC [15] was 30 µg/mL (≈ 83.9 µM) and the IC50 [2] was 61 µM. For the same molecule, the MIC [16] was 30 µg/mL (≈ 83.9 µM), the MIC [17] was 10 µg/mL (≈ 28 µM) and the MIC [18] was 30 µg/mL (≈ 83.9 µM). It also gave an MIC [19] of over 10 µg/mL and an MIC [20] of 30 µg/mL (≈ 83.9 µM).

With `CCN1CC(CO)Cc2cc(Cc3cnc(N)nc3N)cc(OC)c21` (stereo not given) the MIC [3] was 30 µg/mL (≈ 87.4 µM), the MIC [4] was over 30 µg/mL and the MIC [5] was 30 µg/mL (≈ 87.4 µM). The MIC [6] was 3 µg/mL (≈ 8.74 µM), the MIC [7] was 30 µg/mL (≈ 87.4 µM) and the MIC [8] was over 100 µg/mL. The MIC [9] was 100 µg/mL (≈ 291 µM), the MIC [10] was 10 µg/mL (≈ 29.1 µM) and the MIC [11] was 30 µg/mL (≈ 87.4 µM). It also gave an IC50 [1] of 2.6 µM, an MIC [12] of 100 µg/mL (≈ 291 µM) and an MIC [13] of 100 µg/mL (≈ 291 µM). It also gave an MIC [14] of 100 µg/mL (≈ 291 µM), an MIC [15] of 10 µg/mL (≈ 29.1 µM) and an IC50 [2] of 440 µM. The MIC [16] was 100 µg/mL (≈ 291 µM), the MIC [17] was 10 µg/mL (≈ 29.1 µM) and the MIC [18] was 100 µg/mL (≈ 291 µM). The MIC [19] was over 10 µg/mL and the MIC [20] was 100 µg/mL (≈ 291 µM).
